What was measured:
Assay type in all cases: biochemical
[1] = tested on: Aspartate aminotransferase (EC 2.6.1.1); test: Enzyme activity under gas: aspartate aminotransferase
Protocol: (§1) Sealed cuvettes containing enzymes representative of and in fact important in food product degradation processes were thoroughly purged and filled with assay gases. Injection of gassed substrate solutions started the reactions, which were generally conducted under optimal conditions. These were monitored […] by scanning uv/vis spectrophotometry. All controls were conducted for oxygen, nitrogen and carbon dioxide. A range of temperatures and pressures were employed. An example protocol is appended. Results were expressed in real-time, and transformed to calculate yield and rate differences for the reaction. Over 50 exemplary enzymes were so assayed. Enzymes selected for examination from various products are assayed in precisely the same manner, but always in terms of relative activity in comparison with that product in air or another control gas or gas mixture.
(§2) The follwing Table summarizes the maximum inhibition of enzymes activity realized with various noble gases under various storage conditions.

Lipase EC 3.1.1.3 = test: Enzyme activity under gas: lipase
Protocol: as §1, §2

[2] = target: Gamma-glutamyl transpeptidase EC 2.3.2.2 (Homo sapiens, UniProt P19440); test: Enzyme activity under gas: gamma-glutamyl transpeptidase
Protocol: as §1, §2

[3] = tested on: Acetyl-CoA synthetase EC 6.2.1.1; test: Enzyme activity under gas: acetyl-CoA synthetase
Protocol: as §1, §2

Tyrosinase EC 1.14.18.1 = test: Enzyme activity under gas: tyrosinase; settings: 25°, optimal reaction conditions, simple saturation of solution with gas
Protocol: as §1, §2
at 25° and optimal reaction conditions, simple saturation of solution with gas: […]

[4] = target: Glucose oxidase EC 1.1.3.4 (Aspergillus niger, UniProt P13006); test: Enzyme activity under gas: glucose oxidase
Protocol: as §1, §2

Phosphoglucose isomerase = Phosphoglucose isomerase (Homo sapiens, UniProt P06744); test: Enzyme activity under gas: phosphoglucose isomerase
Protocol: as §1, §2

Chain of Gamma-glutamyl transpeptidase EC 2.3.2.2 (P19440 whole entry): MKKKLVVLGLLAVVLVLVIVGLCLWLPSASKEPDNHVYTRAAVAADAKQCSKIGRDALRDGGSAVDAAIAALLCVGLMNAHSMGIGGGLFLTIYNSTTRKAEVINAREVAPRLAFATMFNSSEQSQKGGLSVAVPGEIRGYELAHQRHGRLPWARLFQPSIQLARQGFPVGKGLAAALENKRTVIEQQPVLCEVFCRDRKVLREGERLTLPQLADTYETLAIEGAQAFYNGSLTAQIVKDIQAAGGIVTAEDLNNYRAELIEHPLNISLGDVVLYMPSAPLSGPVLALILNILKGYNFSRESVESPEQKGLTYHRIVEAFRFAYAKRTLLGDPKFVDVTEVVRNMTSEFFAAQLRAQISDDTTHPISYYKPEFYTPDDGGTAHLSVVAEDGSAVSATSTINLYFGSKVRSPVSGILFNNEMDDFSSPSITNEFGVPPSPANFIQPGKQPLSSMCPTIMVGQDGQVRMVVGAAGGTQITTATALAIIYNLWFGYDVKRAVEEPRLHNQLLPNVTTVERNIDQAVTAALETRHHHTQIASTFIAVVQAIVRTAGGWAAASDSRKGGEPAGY
Chain of Glucose oxidase EC 1.1.3.4 (P13006 17-605): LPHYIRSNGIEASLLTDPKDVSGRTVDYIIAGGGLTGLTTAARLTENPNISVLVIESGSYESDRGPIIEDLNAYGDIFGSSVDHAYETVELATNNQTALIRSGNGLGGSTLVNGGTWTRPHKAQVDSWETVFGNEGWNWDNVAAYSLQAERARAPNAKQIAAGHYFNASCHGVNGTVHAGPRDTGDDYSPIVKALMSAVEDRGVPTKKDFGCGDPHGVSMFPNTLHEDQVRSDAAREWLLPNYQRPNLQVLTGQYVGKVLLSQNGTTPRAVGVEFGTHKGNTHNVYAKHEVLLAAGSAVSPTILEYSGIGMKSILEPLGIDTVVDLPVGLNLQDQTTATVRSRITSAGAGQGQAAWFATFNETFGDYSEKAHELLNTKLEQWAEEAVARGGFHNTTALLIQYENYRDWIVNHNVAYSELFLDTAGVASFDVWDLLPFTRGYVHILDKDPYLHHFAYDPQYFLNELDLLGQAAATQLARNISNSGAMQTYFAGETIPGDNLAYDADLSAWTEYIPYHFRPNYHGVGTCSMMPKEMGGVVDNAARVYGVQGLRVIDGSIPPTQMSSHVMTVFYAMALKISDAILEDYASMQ

SMILES | Result (inhibition), maximum inhibition of enzyme activity [1] | Result, With Lipase (Lipase EC 3.1.1.3) | Result (inhibition), maximum inhibition of enzyme activity [2] | Result [3] | Result (inhibition vs air), maximum inhibition of enzyme activity (Tyrosinase EC 1.14.18.1) | Result (inhibition), maximum inhibition of enzyme activity [4] | Result (Phosphoglucose isomerase)
[Kr] [Kr, krypton] | −82% | −25% | −8% | −16% | −73% | −92.7% | 
[Ne] [Ne, neon] | −12% | −15% | −3% | −15% | −46.7% | −61.7% | −45%
[Xe] [Xe, xenon] | −17% (inhibition) | −25.6% | −7% (inhibition) | −18% |  | −91.6% (inhibition) | −61%
